Laboratory results from ChEMBL document CHEMBL4196048, “Discovery and characterization of a potent Wnt and hedgehog signaling pathways dual inhibitor” (Eur J Med Chem, 2018).
Calls of active or inactive are those of the source. No cut-off for these calls is given here.

Tests used:
[1] = target: T1, Protein-serine O-palmitoleoyltransferase porcupine (Mus musculus) (UniProt Q9JJJ7); assay: (§1) Inhibition of porcupine in mouse L Wnt3A cells co-cultured with HEK293 cells assessed as suppression of Wnt signaling after 48 hrs by Super-top flash reporter gene assay; type: cell-based
T1 sequence (whole entry): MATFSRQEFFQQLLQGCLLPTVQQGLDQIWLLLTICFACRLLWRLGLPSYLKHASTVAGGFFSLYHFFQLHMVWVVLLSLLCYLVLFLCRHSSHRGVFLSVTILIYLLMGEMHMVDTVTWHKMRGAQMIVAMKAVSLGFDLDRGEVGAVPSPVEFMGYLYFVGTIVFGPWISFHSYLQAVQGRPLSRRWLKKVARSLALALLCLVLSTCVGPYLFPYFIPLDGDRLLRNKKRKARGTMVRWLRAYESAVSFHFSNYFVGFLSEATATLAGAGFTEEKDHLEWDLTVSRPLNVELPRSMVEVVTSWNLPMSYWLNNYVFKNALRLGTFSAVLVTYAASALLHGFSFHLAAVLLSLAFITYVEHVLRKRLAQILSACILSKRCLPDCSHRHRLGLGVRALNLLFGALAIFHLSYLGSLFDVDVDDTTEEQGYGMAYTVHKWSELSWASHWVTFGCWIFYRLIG

[2] = target: T2, Protein-serine O-palmitoleoyltransferase porcupine (Homo sapiens) (UniProt Q9H237); assay: Inhibition of porcupine in HEK293T cells transfected with pLibin-WNT3A plasmid assessed as reduction in Wnt3A secretion into cell culture medium at 100 nM after 48 hrs by Western blot method; type: cell-based
T2 sequence (whole entry): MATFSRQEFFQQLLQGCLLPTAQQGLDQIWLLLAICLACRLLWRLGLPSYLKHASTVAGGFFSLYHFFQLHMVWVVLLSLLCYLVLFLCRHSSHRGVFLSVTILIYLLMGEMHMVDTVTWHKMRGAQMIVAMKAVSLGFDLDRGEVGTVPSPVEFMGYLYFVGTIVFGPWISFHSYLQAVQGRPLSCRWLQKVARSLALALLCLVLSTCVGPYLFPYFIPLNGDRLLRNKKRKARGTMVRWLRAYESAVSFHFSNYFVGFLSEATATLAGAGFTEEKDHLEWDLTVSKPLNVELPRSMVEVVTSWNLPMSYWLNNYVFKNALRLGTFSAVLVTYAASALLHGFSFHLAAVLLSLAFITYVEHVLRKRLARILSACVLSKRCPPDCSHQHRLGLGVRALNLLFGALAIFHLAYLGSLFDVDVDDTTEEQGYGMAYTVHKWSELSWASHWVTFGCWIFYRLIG

[3] = target: T2, Protein-serine O-palmitoleoyltransferase porcupine (Homo sapiens); assay: Inhibition of porcupine-mediated Wnt/beta-catenin signaling in human PA1 cells assessed as downregulation of Axin2 mRNA expression after 24 hrs by real-time PCR analysis; type: cell-based
[4] = target: T2, Protein-serine O-palmitoleoyltransferase porcupine (Homo sapiens); assay: Inhibition of porcupine-mediated Wnt/beta-catenin signaling in human PA1 cells assessed as downregulation of disheveled 2 phosphorylation after 48 hrs by Western blot analysis; type: cell-based
[5] = target: T2, Protein-serine O-palmitoleoyltransferase porcupine (Homo sapiens); assay: Inhibition of porcupine-mediated Wnt/beta-catenin signaling in human PA1 cells assessed as downregulation of LRP6 phosphorylation after 48 hrs by Western blot analysis; type: cell-based
[6] = AUC (0 to 24 hrs) in ICR mouse at 2 mg/kg, iv by LC-MS/MS analysis; type: ADME, organism-based; design: dose 2 mg/kg, time < 24 hr, route intravenous; conditions: in vivo
[7] = Clearance in ICR mouse at 2 mg/kg, iv by LC-MS/MS analysis; type: ADME, organism-based; conditions: in vivo
[8] = Volume of distribution at steady state in ICR mouse at 2 mg/kg, iv by LC-MS/MS analysis; type: ADME, organism-based; conditions: in vivo, read-out: Vdss
[9] = Half life in ICR mouse at 2 mg/kg, iv by LC-MS/MS analysis; type: ADME, organism-based; conditions: in vivo
[10] = AUC (0 to 24 hrs) in ICR mouse at 10 mg/kg, po administered via gavage by LC-MS/MS analysis; type: ADME, organism-based; design: time < 24 hr, dose 10 mg/kg, route oral; conditions: in vivo
[11] = Cmax in ICR mouse at 10 mg/kg, po administered via gavage by LC-MS/MS analysis; type: ADME, organism-based; design: dose 10 mg/kg, route oral; conditions: in vivo
[12] = Tmax in ICR mouse at 10 mg/kg, po administered via gavage by LC-MS/MS analysis; type: ADME, organism-based; conditions: in vivo
[13] = Half life in ICR mouse at 10 mg/kg, po administered via gavage by LC-MS/MS analysis; type: ADME, organism-based; conditions: in vivo
[14] = Oral bioavailability in ICR mouse at 10 mg/kg administered via gavage by LC-MS/MS analysis; type: ADME, organism-based; conditions: in vivo
[15] = Protein binding in mouse plasma; type: ADME, cell-free; conditions: read-out: PPB (converted)
Mus musculus [16] = assay: Toxicity in C57BL/6J mouse assessed as effect on behavior at 10 mg/kg administered for 7 days via oral gavage; type: organism-based; conditions: in vivo, 168 h
Mus musculus [17] = assay: Toxicity in C57BL/6J mouse assessed as effect on food consumption at 10 mg/kg administered for 7 days via oral gavage; type: organism-based; conditions: in vivo, 168 h
Mus musculus [18] = assay: Toxicity in C57BL/6J mouse assessed as effect on WBC count in blood at 10 mg/kg administered for 7 days via oral gavage; type: organism-based; conditions: in vivo, 168 h
Mus musculus [19] = assay: Toxicity in C57BL/6J mouse assessed as effect on lymphocyte count in blood at 10 mg/kg administered for 7 days via oral gavage; type: organism-based; conditions: in vivo, 168 h
Mus musculus [20] = assay: Toxicity in C57BL/6J mouse assessed as body weight loss at 10 mg/kg administered for 7 days via oral gavage; type: organism-based; conditions: in vivo, 168 h
Mus musculus [21] = assay: Toxicity in C57BL/6J mouse assessed as effect on RBC count in blood at 10 mg/kg administered for 7 days via oral gavage; type: organism-based; conditions: in vivo, 168 h
Mus musculus [22] = assay: Toxicity in C57BL/6J mouse assessed as effect on hemoglobin content in blood at 10 mg/kg administered for 7 days via oral gavage; type: organism-based; conditions: in vivo, 168 h
Mus musculus [23] = assay: Toxicity in C57BL/6J mouse assessed as effect on platelet count in blood at 10 mg/kg administered for 7 days via oral gavage; type: organism-based; conditions: in vivo, 168 h
Mus musculus [24] = assay: Toxicity in C57BL/6J mouse assessed as effect on heart weight at 10 mg/kg administered for 7 days via oral gavage; type: organism-based; conditions: in vivo, 168 h
Mus musculus [25] = assay: Toxicity in C57BL/6J mouse assessed as effect on liver weight at 10 mg/kg administered for 7 days via oral gavage; type: organism-based; conditions: in vivo, 168 h
Mus musculus [26] = assay: Toxicity in C57BL/6J mouse assessed as effect on spleen weight at 10 mg/kg administered for 7 days via oral gavage; type: organism-based; conditions: in vivo, 168 h
Mus musculus [27] = assay: Toxicity in C57BL/6J mouse assessed as effect on lung weight at 10 mg/kg administered for 7 days via oral gavage; type: organism-based; conditions: in vivo, 168 h
Mus musculus [28] = assay: Toxicity in C57BL/6J mouse assessed as effect on kidney weight at 10 mg/kg administered for 7 days via oral gavage; type: organism-based; conditions: in vivo, 168 h
Mus musculus [29] = assay: Toxicity in C57BL/6J mouse assessed as effect on colon architecture at 10 mg/kg administered via oral gavage for 7 days by hematoxylin and eosin staining-based method; type: organism-based; conditions: in vivo, 168 h
Mus musculus [30] = assay: Toxicity in C57BL/6J mouse assessed as effect on stomach architecture at 10 mg/kg administered via oral gavage for 7 days by hematoxylin and eosin staining-based method; type: organism-based; conditions: in vivo, 168 h
Mus musculus [31] = assay: Toxicity in C57BL/6J mouse assessed as effect on liver architecture at 10 mg/kg administered via oral gavage for 7 days by hematoxylin and eosin staining-based method; type: organism-based; conditions: in vivo, 168 h
Mus musculus [32] = assay: Toxicity in C57BL/6J mouse assessed as effect on spleen architecture at 10 mg/kg administered via oral gavage for 7 days by hematoxylin and eosin staining-based method; type: organism-based; conditions: in vivo, 168 h
[33] = target: T2, Protein-serine O-palmitoleoyltransferase porcupine (Homo sapiens); assay: Inhibition of porcupine in HEK293 cells transfected with pLibin-WNT3A plasmid assessed as downregulation of disheveled 2 phosphorylation at 100 nM after 48 hrs by Western blot analysis; type: cell-based
[34] = target: T2, Protein-serine O-palmitoleoyltransferase porcupine (Homo sapiens); assay: Inhibition of porcupine in HEK293 cells transfected with pLibin-WNT3A plasmid assessed as downregulation of LRP6 phosphorylation at 100 nM after 48 hrs by Western blot analysis; type: cell-based
[35] = target: Protein smoothened (Mus musculus) (UniProt P56726); assay: (§2) Inhibition of smo-mediated hedgehog signaling pathway in mouse NIH3T3 cells expressing GRE-Luc reporter gene assessed as inhibition of SAG-induced GRE-Luc reporter activity after 48 hrs by luminescence assay; type: functional, cell-based
Protein smoothened (Mus musculus), sequence (P56726 whole entry): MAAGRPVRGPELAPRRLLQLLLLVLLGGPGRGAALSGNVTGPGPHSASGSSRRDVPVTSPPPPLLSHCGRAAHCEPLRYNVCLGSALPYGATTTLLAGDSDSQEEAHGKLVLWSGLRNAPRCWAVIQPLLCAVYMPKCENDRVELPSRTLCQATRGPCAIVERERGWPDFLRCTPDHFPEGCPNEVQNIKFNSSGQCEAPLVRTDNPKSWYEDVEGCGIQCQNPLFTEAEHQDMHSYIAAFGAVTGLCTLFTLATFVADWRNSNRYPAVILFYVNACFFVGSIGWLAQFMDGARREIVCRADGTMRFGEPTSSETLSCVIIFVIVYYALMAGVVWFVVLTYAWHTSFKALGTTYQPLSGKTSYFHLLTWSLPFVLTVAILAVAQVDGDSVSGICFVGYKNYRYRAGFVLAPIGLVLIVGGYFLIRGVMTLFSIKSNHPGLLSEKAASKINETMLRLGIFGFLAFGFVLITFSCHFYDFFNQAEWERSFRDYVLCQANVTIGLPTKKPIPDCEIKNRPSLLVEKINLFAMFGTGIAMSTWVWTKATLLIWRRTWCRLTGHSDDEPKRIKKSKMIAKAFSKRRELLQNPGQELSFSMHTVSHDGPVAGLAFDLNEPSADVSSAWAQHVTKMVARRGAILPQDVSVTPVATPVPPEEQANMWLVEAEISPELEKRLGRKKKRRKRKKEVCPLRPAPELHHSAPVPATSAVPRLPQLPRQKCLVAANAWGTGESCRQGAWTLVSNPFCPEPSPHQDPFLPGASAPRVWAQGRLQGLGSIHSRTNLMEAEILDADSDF

Protein smoothened [36] = target: Protein smoothened (Mus musculus, UniProt P56726); assay: as §2; type: functional, cell-based
Protein smoothened (Mus musculus, UniProt P56726), sequence (P56726 whole entry): as above

Astrocyte = assay: Cytotoxicity against primary astrocytes (unknown origin) up to 20 uM after 24 hrs by MTT assay; type: cell-based
GES1 = assay: Cytotoxicity against human GES-1 cells up to 20 uM by Cell Titer-Glo assay; type: cell-based
[37] = target: Protein smoothened (Mus musculus) (UniProt P56726); assay: Inhibition of smo-mediated hedgehog signaling pathway in mouse NIH3T3-Luc cells assessed as downregulation of 1 to 100 nM SAG-induced Gli luciferase activity after 48 hrs luminescence assay; type: functional, cell-based
Protein smoothened [38] = target: Protein smoothened (Homo sapiens, UniProt Q99835); assay: Inhibition of Bodipy-cyclopamine binding to human Smo expressed in human U2OS cells after 2 hrs by high content fluorescence imaging analysis; type: cell-based
Protein smoothened (Homo sapiens, UniProt Q99835), sequence (Q99835 whole entry): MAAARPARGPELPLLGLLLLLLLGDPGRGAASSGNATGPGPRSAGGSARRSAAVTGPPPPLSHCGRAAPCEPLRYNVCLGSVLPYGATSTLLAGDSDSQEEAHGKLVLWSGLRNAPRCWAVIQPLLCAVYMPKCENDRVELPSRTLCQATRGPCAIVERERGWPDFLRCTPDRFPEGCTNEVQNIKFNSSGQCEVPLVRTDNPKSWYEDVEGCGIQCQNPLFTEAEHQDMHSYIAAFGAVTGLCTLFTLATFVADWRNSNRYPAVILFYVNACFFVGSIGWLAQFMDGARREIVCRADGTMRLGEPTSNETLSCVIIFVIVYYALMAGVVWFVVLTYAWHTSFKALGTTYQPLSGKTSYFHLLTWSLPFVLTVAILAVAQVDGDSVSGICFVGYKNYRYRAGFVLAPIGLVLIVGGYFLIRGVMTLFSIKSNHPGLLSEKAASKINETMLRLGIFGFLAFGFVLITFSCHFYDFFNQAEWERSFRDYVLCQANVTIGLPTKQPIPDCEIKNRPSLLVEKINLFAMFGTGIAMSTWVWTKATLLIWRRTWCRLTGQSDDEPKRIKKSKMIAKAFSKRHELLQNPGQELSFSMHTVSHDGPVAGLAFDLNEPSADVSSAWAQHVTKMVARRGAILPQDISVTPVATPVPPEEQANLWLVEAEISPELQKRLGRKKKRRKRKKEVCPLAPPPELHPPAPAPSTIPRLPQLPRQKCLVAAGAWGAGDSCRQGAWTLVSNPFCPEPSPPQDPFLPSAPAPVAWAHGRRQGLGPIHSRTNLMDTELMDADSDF

[39] = target: Protein smoothened (Mus musculus) (UniProt P56726); assay: Inhibition of smo-mediated hedgehog signaling pathway in mouse NIH3T3-Luc cells assessed as downregulation of Gli mRNA expression after 48 hrs by real-time PCR analysis; type: functional, cell-based
HEK-293T = assay: Effect on Wnt3A levels in HEK293T cells transfected with pLibin-WNT3A plasmid at 100 nM after 48 hrs by Western blot method; type: functional, cell-based; conditions: Homo sapiens
Mus musculus [40] = assay: Time at which blood concentration stays above in vitro IC50 for porcupine-mediated Wnt signaling and smo-mediated hedgehog signaling pathway in ICR mouse at 10 mg/kg, po administered via gavage by LC-MS/MS analysis; type: ADME, organism-based; conditions: in vivo
[41] = target: T3, Protein-serine O-palmitoleoyltransferase porcupine (Mus musculus, UniProt Q9JJJ7); assay: as §1; type: cell-based
T3 sequence (Q9JJJ7 whole entry): T1 sequence (whole entry)

[42] = target: Protein smoothened (Mus musculus) (UniProt P56726); assay: Inhibition of smo-mediated hedgehog signaling pathway in mouse NIH3T3-Luc cells assessed as downregulation of Gli mRNA expression at 1 uM after 48 hrs by real-time PCR analysis; type: functional, cell-based

Compound: CS(=O)(=O)c1ccc(C(=O)Nc2ccc(Cl)c(-c3ccccn3)c2)c(Cl)c1
- inhibition [1]: inactive
- inhibition [2]: inactive
- inhibition [3]: inactive
- inhibition [4]: inactive
- inhibition [5]: inactive

Compound: Cc1cc(-c2ncc(CNC(=O)c3ccc4c(c3)[nH]c3ccccc34)cc2F)ccn1
- AUC(0-t) at 24 h [6]: 5460 ng·h/mL
- clearance [7]: 6.1 mL/min/kg
- Vd [8]: 0.4 L/kg
- half-life [9]: 1.1 h
- AUC(0-t) at 24 h [10]: 13500 ng·h/mL
- Cmax [11]: 5140 ng/mL
- Tmax [12]: 0.5 h
- half-life [13]: 2.1 h
- bioavailability [14]: 49%
- fraction unbound [15]: 0.007
- Activity (Mus musculus [16]): Non-Toxic
- Activity (Mus musculus [17]): Non-Toxic
- Activity (Mus musculus [18]): Non-Toxic
- Activity (Mus musculus [19]): Non-Toxic
- Activity (Mus musculus [20]): Non-Toxic
- Activity (Mus musculus [21]): Non-Toxic
- Activity (Mus musculus [22]): Non-Toxic
- Activity (Mus musculus [23]): Non-Toxic
- Activity (Mus musculus [24]): Non-Toxic
- Activity (Mus musculus [25]): Non-Toxic
- Activity (Mus musculus [26]): Non-Toxic
- Activity (Mus musculus [27]): Non-Toxic
- Activity (Mus musculus [28]): Non-Toxic
- Activity (Mus musculus [29]): Non-Toxic
- Activity (Mus musculus [30]): Non-Toxic
- Activity (Mus musculus [31]): Non-Toxic
- Activity (Mus musculus [32]): Non-Toxic
- inhibition [2]: Active
- inhibition [33]: Active
- inhibition [34]: Active
- inhibition [3]: Active
- inhibition [4]: Active
- inhibition [5]: Active
- inhibition [35]: Dose-dependent effect
- IC50 (Protein smoothened [36]): 71 nM
- Activity (Astrocyte): Non-Toxic
- Activity (GES1): Non-Toxic
- inhibition [37]: Active
- IC50 (Protein smoothened [38]): > 10000 nM
- inhibition [39]: Dose-dependent effect
- Activity (HEK-293T): inactive
- Time (Mus musculus [40]): 10 h

Compound: Cc1cc(-c2ncc(CNC(=O)c3ccc4c(c3)Cc3ccccc3-4)cc2F)ccn1
- IC50 [41]: 6.5 nM

Compound: Cc1cc(-c2ncc(CNC(=O)c3ccc4c(c3)[nH]c3ccccc34)cc2C#N)ccn1
- IC50 [41]: 0.72 nM
- IC50 (Protein smoothened [36]): 1220 nM

Compound: COc1cc(CNC(=O)c2ccc3c(c2)[nH]c2ccccc23)cnc1-c1ccnc(C)c1
- IC50 [41]: 1.9 nM
- IC50 (Protein smoothened [36]): 3660 nM

Compound: Cc1cc(-c2ncc(CC(=O)Nc3ccc(-c4cnccn4)cn3)cc2C)ccn1
- inhibition [2]: Active
- inhibition [33]: Active
- inhibition [34]: Active
- inhibition [3]: Active
- inhibition [4]: Active
- inhibition [5]: Active
- inhibition [35]: inactive
- inhibition [42]: inactive
- Activity (HEK-293T): inactive

Compound: Cc1cc(-c2ncc(CNC(=O)c3ccc4c(c3)oc3ccccc34)cc2F)ccn1
- IC50 [41]: 2.1 nM
